Measured values: patent US8232070B2, “DNP63A gene and screening methods of anticancer agent by using it” (Seoul National University Industry Foundation, priority 2007, dated 2012)
Peptide text beside a SMILES is read from it. * marks the point of attachment. Cbz = O=C(OCc1ccccc1)*

What was measured:
ΔNp63α [1] = assay: ΔNp63α protein amount and stability in ME180 carcinoma cells after TNF-α treatment (cyclohexamide chase, FIG. 1); assay type: cell-based
Description: After TNF-α treatment for 16 hours, cyclohexamide which inhibit protein synthesis was added and the samples were obtained at the indicated time-points and observed for changes of protein stability. As a result, the protein degradation began after 4 hours of treatment with cyclohexamide.
Previously, ME180, ΔNp63α overexpressing carcinoma, was treated with TNF-α (tumor necrosis factor-alpha) which induces cell death. Also, the changes of the amount of ΔNp63α protein were observed. […] It is identified that such degradation of ΔNp63α was proceeded by specific mechanism, that is, by proteasome-mediated mechanism (FIG. 1). Protein degradation pathways could be usually classified in large into two groups, the first one is a degradation pathway by a protease after its polyubiquitination and movement to proteases, and the other one is a degradation pathway by a caspases.

ΔNp63α [2] = assay: Intracellular location of GFP-fused ΔNp63α in transformed ME180 cells, fluorescence microscopy (FIG. 2); assay type: cell-based; conditions: ME180 transformed with pEGFP-ΔNp63α
Text: The recombinant vector constructed by the present inventor had fused ΔNp63α next to pEGFP-C1. The advantage of GFP is to observe easily in microscopy because GFP emit the green light at the specific absorbance (Excitation maximum=488 nm; emission maximum=507 nm). […] GFP is inherently expressed all over the area of cell, however, it was identified that GFP expression was observed only in the nucleus after GFP fused with ΔNp63α.
As a signal of cell death induction, the intracellular location and expression patterns of ΔNp63α were observed. In detail, it was observed variation aspect and cell location of ΔNp63α with a time span, 0 hr, 1 hr, 2 hr and 4 hr with fluorescence microscope, after cloning ΔNp63α gene into the vector expressing Green Fluorescence Protein (GFP), expressing for a certain time by transformation into carcinoma cell, treating TNF-α which induce cell death, carcinoma cells being transformed and then the protein being expressed for a certain time. As a result, it was observed similar aspect of aggreasome, which looks like complex of preteasome, because ΔNp63α, which had been known to locate only in nucleus, moved from nucleus to cytoplasm about 2 hr after treatment of TNF-α (FIG. 2). […]

CC(C)C[C@@H](C=O)NC(=O)[C@H](CC(C)C)NC(=O)[C@H](CC(C)C)NC(=O)OCc1ccccc1 [MG132, reference compound] (Cbz-Leu-Leu-Leu-aldehyde)
ΔNp63α protein degradation with proteasome inhibitor co-treatment (ΔNp63α [1]; MG132 20 nM together with cyclohexamide after TNF-α treatment for 16 hours): wasn't degraded and stabilized even after 4 hours

TNF-α
amount of ΔNp63α protein after treatment (ΔNp63α [1]; ME180 cells, ΔNp63α overexpressing carcinoma): decreased rapidly
time at which ΔNp63α protein degradation began after addition of cyclohexamide (ΔNp63α [1]; TNF-α treatment for 16 hours, then cyclohexamide added): 4 h
change of ΔNp63α protein location after treatment (ΔNp63α [2]): from the nucleus to the cytoplasm
time at which ΔNp63α moved from nucleus to cytoplasm after treatment (ΔNp63α [2]; observed at 0 hr, 1 hr, 2 hr and 4 hr): about 2 hr
